Reference: US9713702B2, “Methods of electric field induced delivery of compounds, compositions used in delivery, and systems of delivery” (The Board of Trustee of the Leland Stanford Junior …, priority 2011, dated 2017)

How the values were obtained:
[1] = Method: D-luciferin-encapsulated polypyrrole nanoparticles were synthesized the by an emulsion polymerization which could control the sizes of the nanoparticles. Luciferin served as a model molecule was incorporated in the polymer nanoparticle. […] At 4° C., 0.05 wt % of polypyrrole nanoparticles were dispersed in the water solution containing 15 wt % of poly[(D,L-lactic acid)-co-(glycolic acid)]-b-poly(ethylene oxide)-b-poly[(D,L-lactic acid)-co-(glycolic acid)] (PLGA-PEG-PLGA).
An electrical stimulus of −2.0 V/cm was applied for 10 seconds on the platinum electrodes in every 5 minutes, followed by measuring the concentration of luciferin in the solution.

[2] = Release study in solution: electric field triggered release from the conductive hydrogel on a platinum electrode in PBS; type: physicochemical
Method: The triggered release capabilities of this system were firstly investigated in solution. In phosphate buffered saline (PBS, pH 7.2), a voltage of −0.5 V was applied between two platinum electrodes separated by a distance of 1 cm. The anode was coated with 100 mg of the hydrogel containing 0.25 wt % fluorescein-encapsulated PPy nanoparticles with a thickness around 0.1 cm. The resistivity of the swelled hydrogel and the PBS buffer was measured to be 5400 Ω·cm and 64 Ω·cm, respectively. Then, the electric field across the hydrogel was calculated to be approximately −4.5 V/cm. The electrical stimulus was applied for 10 seconds, which was repeated every five minutes, followed by measurements of the concentration of free fluorescein in the solution. […] For each stimulus, ˜20 ng of fluorescein was released. The voltage between the two electrodes was then set at −1.5 V (corresponding to an electric field across the hydrogel of −13.6 V/cm). […] The higher amount observed during the first stimulus may result from higher drug loading within the nanoparticles. Our interest in the practicability of this triggered release led us to perform a long-term release study over seven days. With the voltage between the two electrodes at −1.0 V (corresponding to an electric field across the hydrogel of −9.0 V/cm), the pulsed electric stimulus was applied to the conductive hydrogels for 20 s, once every 24 hr, followed by concentration measurements of free fluorescein in solution. […] In the case of daunorubicin, an electric field across the hydrogel of 4.5 V/cm (the set voltage was 0.5 V) was applied for 10 seconds every 5 minutes.
By applying voltage until no obvious drug release could be detected, the loading percentage of fluorescein and daunorubicin in PPy nanoparticles was calculated to be around 3.6 wt % and 3.2 wt %. […] Only with an electric stimulus can drugs be released on command. This represents an important advantage of our delivery system over conventional sustained release of drugs from hydrogel.
The platinum anode was firstly coated with the PLGA-PEG-PLGA polymer solution (100 mg of polymer) containing 0.25 wt % fluorescein (or daunorubicin)-encapsulated PPy nanoparticles, followed by solidification of the gel at room temperature. The PPy nanoparticles in the solidified gel was calculated to be 1 wt %. The coated platinum anode was then immersed in phosphate buffered saline (PBS, pH 7.2) together with a counter platinum electrode with a separated distance of 1 cm. For the release study in solution, specific voltages were applied between the two electrodes, followed by measurements of the concentration of released molecules by fluorescent assays.

Row | release of luciferin without applying voltage ([1]; D-luciferin-encapsulated polypyrrole nanoparticles in hydrogel, control without voltage) | Structure (SMILES) | release of luciferin upon electric stimulus ([1]; D-luciferin-encapsulated polypyrrole nanoparticles in PLGA-PEG-PLGA hydrogel, -2.0 V/cm, 10 seconds every 5 minutes) | loading percentage in PPy nanoparticles ([2]; calculated by applying voltage until no obvious drug release could be detected) [wt %] | amount of daunorubicin released upon each stimulus ([2]; daunorubicin-encapsulated PPy nanoparticles in hydrogel, PBS pH 7.2, 0.5 V (4.5 V/cm across hydrogel), 10 seconds every 5 minutes) [ng] | release from PPy nanoparticles in hydrogel without applying voltage ([2]; drug encapsulated in PPy nanoparticles in hydrogel, no electric field (control)) | sustained release from hydrogel without encapsulation in PPy nanoparticles ([2]; drug in PLGA-PEG-PLGA hydrogel, not encapsulated in PPy nanoparticles, no voltage)
1 | no release | O=C(O)[C@H]1CSC(c2nc3ccc(O)cc3s2)=N1 [luciferin, D-luciferin] | released by applying the electric stimulus |  |  |  | 
2 |  | COc1cccc2c1C(=O)c1c(O)c3c(c(O)c1C2=O)C[C@@](O)(C(C)=O)C[C@@H]3O[C@H]1C[C@H](N)[C@H](O)[C@H](C)O1 [daunorubicin] |  | ~3.2 | ~25 | no obvious release | most of the drugs in hydrogel were released in 4 days
